Reference: patent US7960391B2, “Heterocyclylethylbenzamide derivatives” (Bayer Cropscience AG, priority 2005, dated 2011)

Experiments:
[1] = tested on: Botrytis cinerea; experiment: Effectiveness on Botrytis cinerea; format: in vivo; settings: 330 ppm; comparison compounds of WO 01/11965
[2] = tested on: Alternaria brassicae; experiment: In vivo test on Alternaria brassicae (leaf spot of crucifers); settings: for effectiveness on Alternaria brassicae: 330 ppm, comparison compounds of WO 01/11965
Protocol: In Vivo Test on Alternaria brassicae (Leaf Spot of Crucifers)
The active ingredient tested is prepared by potter homogenisation in a concentrated suspension type formulation at 100 g/l. This suspension is then diluted with water to obtain the desired active material concentration.
Radish plants (Pernot variety) in starter cups, sown on a 50/50 peat soil-pozzolana substrate and grown at 18-20° C., are treated at the cotyledon stage by spraying with the aqueous suspension described above.
Plants, used as controls, are treated with an aqueous solution not containing the active material.
After 24 hours, the plants are contaminated by spraying them with an aqueous suspension of Alternaria brassicae spores (40,000 spores per cm^3). The spores are collected from a 12-13-day-old culture.
The contaminated radish plants are incubated for 6-7 days at about 18° C., under a humid atmosphere.
Grading is carried out 6 to 7 days after the contamination, in comparison with the control plants.

[3] = tested on: Peronospora parasitica; experiment: Efficacy against Peronospora parasitica; format: in vivo; settings: 330 ppm; comparison compound of WO 01/11965

SMILES	effectiveness on Botrytis cinerea [1]	effectiveness on Alternaria brassicae [2]	efficacy against Peronospora parasitica [3]	good (at least 50%) [protection] versus control plants ([2]; radish plants (Pernot variety), preventive spray 24 hours before contamination, dose 500 ppm, grading 6 to 7 days after contamination)
CCNC(=O)C(Cc1ncc(C(F)(F)F)cc1Cl)NC(=O)c1ccccc1 (stereo not shown) [compound 304, N-{1-ethylcarbamoyl-2-[3-chloro-5-(trifluoromethyl)-2-pyridinyl]-ethyl}-benzamide]	zero effectiveness			
CNC(=O)C(Cc1ncc(C(F)(F)F)cc1Cl)NC(=O)c1ccc(OC)cc1 (stereo not shown) [compound 315, N-{1-methylcarbamoyl-2-[3-chloro-5-(trifluoromethyl)-2-pyridinyl]ethyl}-4-methoxybenzamide]	zero effectiveness			
CCNC(=O)C(Cc1ncc(C(F)(F)F)cc1Cl)NC(=O)c1ccccc1Br (stereo not shown) [compound 310, N-{1-ethylcarbamoyl-2-[3-chloro-5-(trifluoromethyl)-2-pyridinyl]ethyl}-2-bromobenzamide]	zero effectiveness			
O=C(Cc1cccs1)NCc1ncc(C(F)(F)F)cc1Cl [compound 101, N-{[3-chloro-5-(trifluoromethyl)-2-pyridinyl]methyl}-5-thienylacetamide]	no efficacy	poor efficacy	no efficacy	
CCNC(=O)C(Cc1ncc(C(F)(F)F)cc1Cl)NC(=O)c1cccc([N+](=O)[O-])c1 (stereo not shown) [compound 307, N-{1-ethylcarbamoyl-2-[3-chloro-5-(trifluoromethyl)-2-pyridinyl]ethyl}-3-nitrobenzamide]	zero effectiveness	poor effectiveness		
CNC(=O)C(Cc1ncc(C(F)(F)F)cc1Cl)NC(=O)c1ccccc1 (stereo not shown) [compound 314, N-{1-methylcarbamoyl-2-[3-chloro-5-(trifluoromethyl)-2-pyridinyl]ethyl}-benzamide]	zero effectiveness			
O=C(NCCc1ncc(Br)cn1)c1ccccc1C(F)(F)F [Compound A-1, N-[2-(5-bromopyrimidin-2-yl)ethyl]-2-(trifluoromethyl)benzamide]				at least 50%
CNC(=O)C(Cc1ncc(C(F)(F)F)cc1Cl)NC(=O)c1ccc(-c2ccccc2)cc1 (stereo not shown) [compound 316, N-{1-methylcarbamoyl-2-[3-chloro-5-(trifluoromethyl)-2-pyridinyl]-ethyl}-4-phenylbenzamide]	zero effectiveness	poor effectiveness		
CCNC(=O)C(Cc1ncc(C(F)(F)F)cc1Cl)NC(=O)c1ccc(Cl)cc1 (stereo not shown) [compound 306, N-{1-ethylcarbamoyl-2-[3-chloro-5-(trifluoromethyl)-2-pyridinyl]ethyl}-4-chlorobenzamide]	zero effectiveness			
